Laboratory results reported in US12404285B2, “KRAS G12D proteolysis targeting chimeras” (PAQ Therapeutics Inc., priority 2022, dated 2025).

Legend:
[1] = molecular target: T1, KRAS in AGS cells (KRAS G12D mutant cell line) or LS180 cells (KRAS G12D mutant cell line) (Homo sapiens, UniProt P01116, G12D); test: KRAS Western Blot (WB) assay; type: cell-based; conditions: KRAS degradation, 24 hours incubation, normalized to β-actin
T1 construct: CRL-187 (LS180) (so in the source); host or cells: AGS or LS180 cells
Outline: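 AGS or LS180 (KRAS G12D) cells treated 24 h with compound; lysates run on SDS-PAGE and immunoblotted for KRAS with β-actin loading control. Fluorescent secondary detection; KRAS bands quantified, normalized to β-actin, giving DC50.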

[2] = molecular target: T2, KRAS (G12D)-HiBit in AsPc-1-KRAS (G12D)-HiBit-KI cell (Homo sapiens, UniProt P01116, G12D); test: G12D HiBit assay; type: cell-based; conditions: 24 hours compound treatment, absolute DC50, read-out: Average PHA DC50
T2 construct: host or cells: AsPc-1-KRAS (G12D)-HiBit-KI cells (knock-in line)
Outline: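 Degradation of endogenous HiBiT-tagged KRAS G12D in AsPc-1 knock-in cells read after 24 h compound exposure (0.015-300 nM, 3-fold steps) by Nano-Glo HiBiT lytic luminescence. Signal normalised to DMSO-only cells; absolute DC50 derived by curve fitting.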

KRAS G12C = KRAS G12C (Homo sapiens, UniProt P01116, G12C); conditions: homozygous and heterozygous tumor cells; cited from earlier work
[3] = tested on: tumor models harboring KRAS G12D mutations; conditions: cited from earlier work
KRAS G12D [4] = molecular target: T3, KRAS G12D (Homo sapiens, UniProt P01116, G12D); conditions: cited from earlier work
KRAS G12D [5] = molecular target: T3, KRAS G12D; conditions: switch II pocket of KRAS G12D; noncovalent; cited from earlier work

DC50 [1]	DC50 [2] [nM]	Compound	further results
A (DC50 less than 1 μM)	–	C#Cc1c(F)ccc2cccc(-c3ncc4c(N5CC6CCC(C5)N6)nc(OC[C@@]56CCCN5[C@H](COC(=O)NCCCCCCCCc5ccc7c(c5)n(C)c(=O)n7C5CCC(=O)NC5=O)CC6)nc4c3F)c12 (stereo partly drawn) [Compound 029, [(3S,8S)-8-[[4-(3, example 208-diazabicyclo[3.2.1]octan-3-yl)-7-(8-ethynyl-7-fluoro-1-naphthyl)-8-fluoro-pyrido[4,3-d]pyrimidin-2-yl]oxymethyl]-1,2,3,5,6,7-hexahydropyrrolizin-3-yl]methyl N-[8-[1-(2,6-dioxo-3-piperidyl)-3-methyl-2-oxo-benzimidazol-5-yl]octyl]carbamate]	–
A (DC50 less than 1 μM)	< 100	C#Cc1c(F)ccc2cccc(-c3ncc4c(N5CC6CCC(C5)N6)nc(OC[C@@]56CCCN5[C@H](COC(=O)N5CCC(OCCCc7cccc8c7n(C)c(=O)n8C7CCC(=O)NC7=O)CC5)CC6)nc4c3F)c12 (stereo partly drawn) [Compound 031, [(3S,8S)-8-[[4-(3,8-diazabicyclo[3.2.1]octan-3-yl)-7-(8-ethynyl-7-fluoro-1-naphthyl)-8-fluoro-pyrido[4,3-d]pyrimidin-2-yl]oxymethyl]-1,2,3,5,6,7-hexahydropyrrolizin-3-yl]methyl 4-[3-[1-(2,6-dioxo-3-piperidyl)-3-methyl-2-oxo-benzimidazol-4-yl]propoxy]piperidine-1-carboxylate]	–
A (DC50 less than 1 μM)	< 100	C#Cc1c(F)ccc2cc(O)cc(-c3ncc4c(N5CC6CCC(C5)N6)nc(OC[C@@]56CCCN5[C@H](COC(=O)N5CCC(OCCCc7cccc8c7n(C)c(=O)n8C7CCC(=O)NC7=O)CC5)CC6)nc4c3F)c12 (stereo partly drawn) [Compound 032, [(3S,8S)-8-[[4-(3,8-diazabicyclo[3.2.1]octan-3-yl)-7-(8-ethynyl-7-fluoro-3-hydroxy-1-naphthyl)-8-fluoro-pyrido[4,3-d]pyrimidin-2-yl]oxymethyl]-1,2,3,5,6,7-hexahydropyrrolizin-3-yl]methyl4-[3-[1-(2,6-dioxo-3-piperidyl)-3-methyl-2-oxo-benzimidazol-4-yl]propoxy]piperidine-1-carboxylate]	–
A (DC50 less than 1 μM)	< 100	C#Cc1c(F)ccc2cc(O)cc(-c3ncc4c(N5CC6CCC(C5)N6)nc(OC[C@@]56CCCN5[C@H](COC(=O)N5CCC(OCC#Cc7cccc8c7n(C)c(=O)n8C7CCC(=O)NC7=O)CC5)CC6)nc4c3F)c12 (stereo partly drawn) [Compound 033, [(3S,8S)-8-[[4-(3,8-diazabicyclo[3.2.1]octan-3-yl)-7-(8-ethynyl-7-fluoro-3-hydroxy-1-naphthyl)-8-fluoro-pyrido[4,3-d]pyrimidin-2-yl]oxymethyl]-1,2,3,5,6,7-hexahydropyrrolizin-3-yl]methyl 4-[3-[1-(2,6-dioxo-3-piperidyl)-3-methyl-2-oxo-benzimidazol-4-yl]prop-2-ynoxy]piperidine-1-carboxylate]	–
–	–	C=C(F)C(=O)N1CCN(c2nc(OC[C@@H]3CCCN3CCCOCCC(=O)N[C@H](C(=O)N3C[C@H](O)C[C@H]3C(=O)NCc3ccc(-c4scnc4C)cc3)C(C)(C)C)nc3c2CCN(c2cccc4cccc(Cl)c24)C3)C[C@@H]1CC#N [LC-2]	degradation of KRAS G12C (KRAS G12C): can rapidly degrade KRAS G12C
–	–	C#Cc1c(F)ccc2cc(O)cc(-c3ncc4c(N5CC6CCC(C5)N6)nc(OC[C@@]56CCCN5C[C@H](F)C6)nc4c3F)c12 [MRTX1133]	in vivo efficacy [3]: in vivo efficacy; activity in cellular assays (KRAS G12D [4]): low nanomolar; binding affinity (KRAS G12D [5]): picomolar
